# Laboratory results as given in patent US12202816B2 (CALLIDITAS THERAPEUTICS SUISSE SA, priority 2018, dated 2025).
# Molecular target: hNOX enzymes
# Assay: ROS production measurement on hNOX membranes (Amplex Red fluorescence assay, assay 1)
# Type: biochemical, human
# Settings: membranes from CHO or HEK cells overexpressing hNox enzymes; Nox isoform not stated; non linear regression; read-out: Nox inhibitory constant Ki
# Description: Reactive oxygen species (ROS) production generated by hNOX enzymes was measured by fluorescence in both cellular and membrane-based assays using the Amplex® Red reagent. In the presence of horseradish peroxidase (HRP), the Amplex® Red reagent (10-acetyl-3,7-dihydroxyphenoxazine, AR), which is a colorless and nonfluorescent derivative of dihydroresorufin, reacts with H2O2 with a 1:1 stoichiometry to produce highly fluorescent resorufin at an excitation and emission wavelengths of 544 nm and 590 nm, respectively.
# Membranes from CHO or HEK cells overexpressing hNox enzymes were prepared as previously described (Palicz et al., 2001, J. Biol. Chem, 76, 3090). After resuspension in sonication buffer (11% sucrose, 120 mM NaCl, 1 mM EGTA in PBS, pH 7.4), cells were broken by sonication and centrifuged (200 g, 10 min). The supernatant was layered onto a 17/40% (w/v) discontinuous sucrose gradient and centrifuged (150,000 g for 30 min). Membrane fractions were collected from the 17/40% interface, aliquoted in 10 μl samples and were stored at −80° C. Protein concentration was determined with Bradford reagent. Flavin Adenine Dinucleotide (FAD) (catalog #F6625-500MG), MgCl2 (catalog #M8266-100G), Phosphatidic Acid (PA) (catalog #P3591-50MG) were purchased from Sigma-Aldrich. Horseradish peroxidase (HRP) (catalog #10108090001) was purchased from Roche. NADPH (catalog #A1395, 0500) was purchased from Applichem. Amplex red (AR) (catalog #A22177) was purchased from Invitrogen. 96 well polypropylene and black plates were purchased from Milian (catalog #055529 and #055218, respectively). FLUOstar OPTIMA microplate reader was supplied by BMG Labtech (Germany). Zephyr® Compact Liquid Handling Workstation was supplied by PerkinElmer (Germany).
# Assay 1: ROS Production Measurement on hNOX Membranes
# All Solutions were placed on ice and protected from light. The final concentration in the 1× hNOX membrane fluorescent assay buffer were PBS pH7, 6 μM FAD, 15 μM PA, 1 mM MgCl2, 12.5 μM AR, 0.02 u/ml, 125 ng membranes, 1.5 μg of cofactors and 30 μM NADPH. The NADPH was dissolved in water at a concentration of 12 mM and was transferred in a metal transfer plate kept at 4° C. The NADPH was added to the assay plate to initiate the reaction just before the measurement.
# Serial dilution (1:3, 10 serial dilution) of the compounds was performed in 100% DMSO in 96 well polypropylene plate—Row B—H Column 1-10, Row A, Column 1-10 contained reference compound. Starting concentration was 10^−2 M (10 mM). Final concentration in assay was 10^−4 M (100 μM). Compounds were diluted twice in PBS buffer by transferring 30 μl/well of PBS into 30 μl/well compounds sample in DMSO using Zephyr® Compact Liquid Handling Workstation. Control wells-columns 1 and 12-contained 60 μl DMSO in 50% PBS pH7.
# Reaction mixture is dispensed using Zephyr® Compact Liquid Handling Workstation. 90 μl of mix with membrane were dispensed into 96 well black plates—Column 2-11, Column 1 Row A-D, Column 12 Row E-H. 90 μl of control mix were dispensed into assay plate—Column 1 Row E-H, Column 12 Row A-D, which are wells for measuring background signal. 2 μl of compounds were dispensed into each well of assay plate using Zephyr® Compact Liquid Handling Workstation. The reaction mixture with compounds was incubated in assay plates for 20 min at 37° C. in a Titramax microplate incubator with gentle agitation. 10 μl of NADPH is dispensed to the assay plate. Fluorescence reading was recorded with the FLUOstar OPTIMA microplate reader for 10 min at 37° C. (8 cycles, 1 cycle duration 55 sec).
# The Table 14 below summarizes the inhibition of NOX activity as measured by the above described assay 1 and expressed by their inhibitory constant calculated by non linear regression analysis using GraphPad Prism Software (GraphPad Software Co., San Diego, CA): […]
compound,measurement,value
COc1cncc(-c2ccc3c(cc(-c4cnc5c(c4)OCCN5C)n3C)c2Cl)c1 [Example 119],Ki,226 nM
